Results published in PMC7117798 (Nature immunology, 2020).
Entries after “also recorded” stand apart in the source; their conditions may differ. Each block holds one compound with its values, some of them ahead of it.

Assays:
[1] = tested on: CD4^+ T cell hybridomas with C3g7 APCs; assay: Antigen presentation assay; assay type: cell-based, mouse; settings: for response of InsB:11–25-reactive CD4^+ T cell hybridoma clone 58: Extended Data Fig. 3
I-A^g7 = assay: Competitive binding assay; design: species or system mouse; settings: n = 2 independent experiments
[2] = tested on: CD4^+ T cells from islets and pLN; assay type: cell-based; settings: 8–10-week old female NOD mice; challenge with Ins1C:51–61 or Ins1C:51–61E and recall; compared with native Ins1C:51–61 or Ins1C:33–61; Fig. 3g
[3] = C3g7 APCs pulsed with epitope, Fig. 2c

Compound: CCN(CC)CCCC(C)Nc1ccnc2cc(Cl)ccc12 (centres unmarked) [chloroquine, reference compound]
effect on presentation of Ins1C:33–61 to a cognate CD4^+ T cell hybridoma ([1]; C3g7 APCs treated with 100 μM chloroquine at 37°C for 2 h in the presence of antigen, Extended Data Fig. 1d): did not affect the presentation

Compound: EALYLVCGE [InsB:13–21]
response of InsB:11–25-reactive CD4^+ T cell hybridoma clone 58 [1, 3]: did not recognize; also recorded: unreactive

fold higher binding affinity to I-A^g7 than Ins1C:51–61 (I-A^g7; competitive binding assay, Fig. 3e): ~ 3 fold
Compound: LQTLALEVARE [Ins1C:51–61E]
IL-2 and IFN-γ production by islet/pLN CD4^+ T cells [2]: substantially stronger responses

Compound: LYLVCGERG [InsB:15–23]
response of InsB:11–25-reactive CD4^+ T cell hybridoma clone 58 [1, 3]: responded

relative binding strength to I-A^g7 (in words) (I-A^g7; competitive binding assay on C3g7 cells): bound poorly
Compound: TLALEVARE [Ins1C:53–61E]

Compound: VEALYLVCG [InsB:12–20]
response of InsB:11–25-reactive CD4^+ T cell hybridoma clone 21 [1, 3]: cross-reacted | response of InsB:11–25-reactive CD4^+ T cell hybridoma clone 58 [1, 3]: did not recognize; also recorded: unreactive
